Data set [1] addresses T1, PGD2 receptor (Homo sapiens, UniProt Q13258).
T1 construct: Peripheral blood was collected from a healthy volunteer; endogenous in cells; host or cells: washed human platelets from peripheral blood of a healthy volunteer
T1 sequence (Q13258 1-359): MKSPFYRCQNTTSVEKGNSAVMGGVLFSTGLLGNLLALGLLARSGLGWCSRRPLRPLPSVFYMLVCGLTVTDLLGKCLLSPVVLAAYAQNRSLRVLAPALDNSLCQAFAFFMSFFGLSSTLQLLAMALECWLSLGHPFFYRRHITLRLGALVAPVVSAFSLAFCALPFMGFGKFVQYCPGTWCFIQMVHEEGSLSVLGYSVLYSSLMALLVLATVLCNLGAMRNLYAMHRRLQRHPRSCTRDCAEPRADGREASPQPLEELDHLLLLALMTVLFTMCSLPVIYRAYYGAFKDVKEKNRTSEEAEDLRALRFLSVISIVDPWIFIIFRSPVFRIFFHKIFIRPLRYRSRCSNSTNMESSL
Briefly: Binding activity to PGD2 receptor (human platelet membrane fraction, [3H]PGD2). To be noted: 5 nM [3H]PGD2, 4° C., 90 min. On the procedure:
Experiment 1 Binding Activity to PGD2 Receptor
(1) Preparation of Human Platelet Membrane Fraction
Blood was collected using a plastic syringe containing 3.8% sodium citrate from the vein of healthy volunteers (adult male and female), then put into a plastic test tube and mixed by slow-reversion. The sample was then centrifuged at 1800 rpm, for 10 min at room temperature, and the supernatant containing PRP (platelet-rich plasma) was collected. The PRP was re-centrifuged at 2300 rpm, for 22 min at room temperature to obtain platelets. The platelets were homogenized using a homogenizer (Ultra-Turrax) followed by centrifugation 3 times at 20,000 rpm, 10 min at 4° C. to obtain a platelet membrane fraction. After protein determination, the membrane fraction was adjusted to 2 mg/ml and preserved in a refrigerator at −80° C. until using for the binding test.
(2) Binding to PGD2 Receptor
To a binding-reaction solution (50 mM Tris/HCl, pH 7.4, 5 mM MgCl2) (0.2 ml) were added the human platelet membrane fraction (0.1 mg) and 5 nM [^3H]PGD2 (115 Ci/mmol), and the mixture was reacted at 4° C. for 90 min. After the reaction, the mixture was filtered through a glass fiber filter paper and washed several times with cooled physiological saline, then the radioactivity retained on the filter paper was measured. The specific-binding ratio was calculated by subtracting the non-specific binding ratio which is the radioactivity similarly measured in the presence of 10 μM PGD2 from the total binding. The inhibitory activity of each compound was expressed as the concentration required for 50% inhibition (IC50), which was determined by depicting a substitution curve by plotting the binding ratio (%) in the presence of each compound, where the binding ratio in the absence of a test compound is 100%.

In data set [2] the target is T1, PGD2 receptor. Briefly: Antagonistic activity against PGD2 receptor using human platelet (inhibition of PGD2-induced cAMP increase). The data set is classed as cell-based. To be noted: 0.1 μM PGD2, cAMP by radioimmunoassay, read-out: Inhibitory activity for the increase of cAMP caused by PGD2 in human platelet IC50. The procedure:
Experiment 2 Evaluation of Antagonistic Activity Against PGD2 Receptor Using Human Platelet
Peripheral blood was collected from a healthy volunteer using a syringe in which 1/9 volume of a citric acid/dextrose solution was previously added. The sample was subjected to centrifugation at 1200 rpm for 10 min to obtain the supernatant (PRP: platelet rich plasma). The resultant PRP was washed 3 times with a washing buffer and the number of platelets was counted with a micro cell counter. A suspension adjusted to contain the platelets at a final concentration of 5×10^8/ml was warmed at 37° C., then subjected to the pre-treatment with 3-isobutyl-1-methylxanthine (0.5 mM) for 5 min. To the suspension was added a test compound diluted at various concentration, and 10 minutes later, 0.1 μM PGD2 was added to induce the reaction 2 minutes later, hydrochloric acid was added to terminate the reaction. The platelet was destroyed with an ultrasonic homogenizer. After centrifugation, the cAMP in the supernatant was determined by radioimmunoassay.

A short description of data set [3]: Change of plasma concentration of drug in rat (half life of the disappearance after intravenous administration). To be noted: Jcl-SD male rats, 0.5 to 2 mg/kg, plasma concentration of unchanged compound. The data set is classed as in vivo. The procedure: Experiment 3 Change of Plasma Concentration of Drug in Rat
Compound (0.5 to 2 mg/kg) was administered intravenously to Jcl-SD male rats. The concentration of the unchanged compound was measured at 2, 5, 15, 30, 60, 120, and 240 min after the administration by the use of HPLC (determination limit; 0.05 μg/ml) and LC/MS/MS (determination limit; 0.001 μg/ml) and the half life of the disappearance was calculated. [drawing 387]

Turning to `CC1(C)[C@H]2C[C@H](CCCCOCC(=O)O)[C@@H](NC(=O)c3coc4ccc(O)cc34)[C@@H]1C2` [IIc-52], the IC50 – broadly, the concentration at which inhibition is half-maximal – at PGD2 receptor [1] is 3.5 nM; at PGD2 receptor [2], 8.2 nM. The half-life (commonly the time in which the quantity being followed falls by half) in data set [3] came out at 23.4 min.

Regarding `O=C(O)COCCCC[C@H]1[C@@H]2CC[C@@H](C2)[C@@H]1NC(=O)c1coc2ccc(O)cc12` [Ic-52], the IC50 worked out at 74 nM on PGD2 receptor [1] and 10 nM on PGD2 receptor [2].

(Values after patent US6933317B2, “PGD2 receptor antagonistic pharmaceutical compositions” (Shionogi & Co. Ltd., priority 2000, dated 2005).)
